According to publication PMC10703812, “Understanding the molecular mechanisms of odorant binding and activation of the human OR52 family” (Nature Communications, 2023):
Values joined by “and” are separate entries in the source; they are usually repeats but may differ in a detail not shown here. Equal entries are not always repeated.

Columns and labels:
[1] = tested on: OR52cs I208A; assay: cAMP signaling assay, mutant; format: cell-based, human; set-up: cAMP response: scale not given here; settings: for cAMP response: Fig.3d source data, single experiments
Description: (§1) For cAMP assay, CRE luciferase assay, and surface ELISA, the full-length OR52cs construct was cloned into the pcDNA3.1 vector. The Lucy signal sequence and FLAG peptide sequence were added to the N-terminus. Mutant constructs were generated by site-directed mutagenesis. For BRET assay, eYFP was added at the C-terminus of OR52cs with a GGGGS linker. Rluc was added to Gα for resonance partner (after L99 for Gαs, and I100 for Gαolf, respectively, with GGGGS linker back and forth).
(§2) Hana3A cells were seeded on 96-well white microplates and transfected with OR52cs or the corresponding mutants and cAMP sensor (Promega). The medium was exchanged with CO2-independent medium (Gibco) supplemented with 0.375 mg ml^−1 D-luciferin (Nanolight) 48 h after infection, and cells were incubated in the dark at 20 °C for 2 h. Basal luminescence was detected using a Tristar 2 LB 942 multimode reader (Berthold) until it reached a plateau. Subsequently, various concentrations of odorants and forskolin (Sigma-Aldrich) were added to each well, and luminescence was measured again. Data were analyzed and plotted using GraphPad Prism 9.4.1.

[2] = tested on: OR52cs F161A; assay: cAMP signaling assay, mutant; format: cell-based, human; set-up: cAMP response: scale not given here; settings: for cAMP response: Fig.3d source data, single experiments
Description: as §1, §2

[3] = tested on: OR52cs T110A; assay: cAMP signaling assay, mutant; format: cell-based, human; set-up: cAMP response: scale not given here; settings: for cAMP response: Fig.3d source data, single experiments
Description: as §1, §2

[4] = tested on: OR52cs; assay: CRE luciferase assay in Hana3A cells; format: cell-based, human; settings: Fig.S7b, single experiments
Description: as §1
Hana3A cells were seeded on 96-well white microplates (SPL) and transfected with plasmids encoding CRE-luciferase, OR52cs or R265^6.59A mutant, Renilla luciferase, RTP1S, and Ric8b at a […] ratio 24 h after seeding. 48 h after infection, cells were treated with odorants and incubated at 37 °C for 4 h. Luminescence was measured using a Tristar 2 LB 942 multimode reader (Berthold). All values were divided by the Renilla luciferase activity to normalize the effect of cell confluence. All data were analyzed using GraphPad Prism 9.4.1.

[5] = tested on: OR52cs ΔN(1–18); assay: cAMP signaling assay, N-tail deletion mutant; format: cell-based, human; settings: Fig. 2c
Description: as §1, §2

[6] = tested on: OR52cs-bRIL-ICL3; assay: cAMP signaling assay, bRIL chimera; format: cell-based, human; set-up: cAMP response: scale not given here; settings: for cAMP response: Fig.S11a source data
Text: For the structural study of apo state OR52cs, the chimeric construct of full-length OR52cs (1–313)[23] was designed to insert bRIL between A226 and L227 with a linker sequence derived from adenosine receptor A2a, as previously described. For purification of active state OR52cs, full-length OR52cs (1–313) was used. Each construct was subcloned into the pFastBac HT B vector with a Lucy signal sequence ([…])[17] and FLAG peptide at the N-terminus. Each construct also included an eGFP with 10xHis-tag, which was fused to the C-terminus of OR52cs with a HRV 3C protease cleavage sequence.
as §2

[7] = tested on: pcDNA (Null) Hana3A cells; assay: cAMP signaling assay, no receptor (Null / pcDNA); format: cell-based; set-up: cAMP response: unit not given here; settings: single experiments; for cAMP response: Fig.S11a source data
Description: as §2

[8] = tested on: OR52cs; assay: cAMP signaling assay (cAMP sensor) in Hana3A cells; format: cell-based, human
Description: as §1, with “forth). […]” for “forth).”
as §2

[9] = tested on: OR52cs / Gαs; assay: BRET assay, G protein recruitment to OR52cs; format: cell-based, human; settings: 500 µM OCA; Gαs-Rluc; Fig.S2a, single experiments; listed as OCA
Description: as §1
(§3) All signaling assays were performed in Hana3A cells, which were kindly provided by Dr. Matsunami. Cells were seeded on 6-well clear plate (SPL) and co-transfected with OR52cs-eYFP, Gαs-Rluc or Gαolf-Rluc, Gβ1 and Gγ2 at a 5:1:1:1 ratio. 48 h after infection, cells were collected and resuspended with PBS. 500 μM of OCA was treated to the cells, and cells were transferred to 96-well white microplate (SPL). Coelenterazine H (Nanolight) was added to each well at a final concentration of 10 μM and luminescence was measured using a Tristar 2 LB 942 multimode reader (Berthold). Data were analyzed using GraphPad Prism 9.4.1.

[10] = tested on: OR52cs / Gαolf; assay: BRET assay, G protein recruitment to OR52cs; format: cell-based, human; settings: 500 µM OCA; Gαolf-Rluc; Fig.S2a, single experiments; listed as OCA
Description: as §1, §3

[11] = odorant 0.001 M (1 mM OCA), Fig.S11a left, single experiments, listed as Octanotae

Question: How did the “X-fold over OR52cs (relative fold of EC50)” value ([1]; Supplementary Table 3) turn out when `CCCCCCCC(=O)O` [Octanoate, octanoic acid] was run?
Answer: 0.65

Question: What about the EC50 ([1]; Supplementary Table 3, N=3) of the same compound?
Answer: 5.1 µM

Question: What about the “pEC50 ± SEM” value ([1]; Supplementary Table 3, N=3) of the same compound?
Answer: 5.321 ± 0.119

Question: What about the cAMP response ([1]; odorant 9.18274e-7 M) of the same compound?
Answer: 9.649 and 7.873 and 7.984

Question: And the cAMP response ([1]; odorant 9.18274e-6 M)?
Answer: 74.2921 and 59.9569

Question: What about the cAMP response ([1]; odorant 3.0303e-5 M) of the same compound?
Answer: 118.216 and 87.9298 and 99.5696

Question: And the cAMP response ([1]; odorant 0.0001 M)?
Answer: 123.062 and 85.14 and 99.773

Question: And the cAMP response ([1]; odorant 0.001 M)?
Answer: 115.233 and 86.0111 and 85.4934

Question: What about the “X-fold over OR52cs (relative fold of EC50)” value ([2]; Supplementary Table 3) of the same compound?
Answer: 5.3

Question: And the EC50 ([2]; Supplementary Table 3, N=3)?
Answer: 42 µM

Question: What about the “pEC50 ± SEM” value ([2]; Supplementary Table 3, N=3) of the same compound?
Answer: 4.214 ± 0.075

Question: And the cAMP response ([2]; odorant 3.0303e-5 M)?
Answer: 40.1826 and 27.0053 and 36.2901

Question: And the cAMP response ([2]; odorant 0.0001 M)?
Answer: 77.0461 and 49.0263 and 69.6028

Question: What about the cAMP response ([2]; odorant 0.001 M) of the same compound?
Answer: 102.629 and 63.8026 and 79.1192

Question: What about the “X-fold over OR52cs (relative fold of EC50)” value ([3]; Supplementary Table 3) of the same compound?
Answer: 2.9

Question: What about the EC50 ([3]; Supplementary Table 3, N=3) of the same compound?
Answer: 22.7 µM

Question: What about the “pEC50 ± SEM” value ([3]; Supplementary Table 3, N=3) of the same compound?
Answer: 4.293 ± 0.098

Question: And the cAMP response ([3]; odorant 3.0303e-5 M)?
Answer: 45.9718 and 31.6697 and 55.6315

Question: And the cAMP response ([3]; odorant 0.0001 M)?
Answer: 55.3228 and 56.0506 and 78.0827

Question: What about the cAMP response ([3]; odorant 0.001 M) of the same compound?
Answer: 63.5049 and 61.123 and 88.9664

Question: And the “relative fold of CRE luciferase activity” value ([4]; odorant 10 μM)?
Answer: 1.744 fold and 2.175 fold and 2.388 fold and 2.247 fold

Question: And the “relative fold of CRE luciferase activity” value ([4]; odorant 50 μM)?
Answer: 4.124 fold and 3.914 fold and 5.3918 fold and 4.986 fold

Question: What about the “relative fold of CRE luciferase activity” value ([4]; odorant 100 μM) of the same compound?
Answer: 4.893 fold and 4.461 fold and 6.103 fold and 6.04 fold

Question: And the “relative fold of CRE luciferase activity” value ([4]; odorant 250 μM)?
Answer: 5.851 fold and 4.875 fold and 6.831 fold and 6.812 fold

Question: And the “relative fold of CRE luciferase activity” value ([4]; odorant 500 μM)?
Answer: 8.532 fold and 7.359 fold and 7.746 fold and 7.343 fold

Question: What about the “downstream signaling (in words)” value [5] of the same compound?
Answer: loss of downstream signaling

Question: What about the “OCA-induced activity (in words)” value ([6]; Supplementary Fig. 11) of the same compound?
Answer: neither basal activity nor OCA-induced activity

Question: What about the cAMP response ([6]; odorant 9.18274e-8 M, single experiments) of the same compound?
Answer: 2.864 and 3.4309 and 3.889 and 3.292

Question: And the cAMP response ([6]; odorant 9.18274e-7 M, single experiments)?
Answer: 3.793 and 3.523 and 3.621 and 3.789

Question: What about the cAMP response ([6]; odorant 9.18274e-6 M, single experiments) of the same compound?
Answer: 3.871 and 2.869 and 3.568 and 3.2862

Question: And the cAMP response ([6]; odorant 3.0303e-5 M, single experiments)?
Answer: 3.732 and 3.68 and 3.466 and 3.76

Question: What about the cAMP response ([6]; odorant 0.0001 M, single experiments) of the same compound?
Answer: 4.827 and 3.799 and 4.225 and 4.217

Question: What about the “cAMP response (raw signal) upon OCA treatment” value [6, 11] of the same compound?
Answer: 8475 and 9202 and 7849 and 10195

Question: What about the cAMP response ([6]; odorant 0.001 M, single experiments) of the same compound?
Answer: 5.645 and 5.075 and 5.021 and 7.052

Question: What about the cAMP response ([7]; odorant 9.18274e-8 M) of the same compound?
Answer: 2.6643 and 2.911 and 3.873 and 3.399

Question: What about the cAMP response ([7]; odorant 9.18274e-7 M) of the same compound?
Answer: 2.569 and 3.588 and 3.415 and 3.589

Question: And the cAMP response ([7]; odorant 9.18274e-6 M)?
Answer: 2.895 and 3.57 and 4.047 and 4.019

Question: And the cAMP response ([7]; odorant 3.0303e-5 M)?
Answer: 3.574 and 3.7923 and 3.945 and 4.033

Question: What about the cAMP response ([7]; odorant 0.0001 M) of the same compound?
Answer: 3.1425 and 4.269 and 3.81 and 3.981

Question: What about the “cAMP response (raw signal) upon OCA treatment” value ([7]; odorant 0.001 M (1 mM OCA), Fig.S11a left, listed as Octanotae) of the same compound?
Answer: 10538 and 15823 and 16065 and 17585

Question: And the cAMP response ([7]; odorant 0.001 M)?
Answer: 4.161 and 5.018 and 6.3304 and 6.191

Question: What about the EC50 ([8]; Supplementary Fig. 13b) of the same compound?
Answer: 7 µM

Question: What about the “X-fold over OR52cs (relative fold of EC50)” value ([8]; Supplementary Table 3) of the same compound?
Answer: 1

Question: And the EC50 ([8]; Supplementary Table 3, N=5)?
Answer: 7.9 µM

Question: What about the “pEC50 ± SEM” value ([8]; Supplementary Table 3, N=5) of the same compound?
Answer: 5.230 ± 0.107

Question: And the cAMP response ([8]; odorant 9.18274e-8 M, Fig.S11a source data, single experiments)?
Answer: 5.085 and 3.831 and 4.775 and 5.026

Question: What about the cAMP response ([8]; odorant 9.18274e-7 M, Fig.S11a source data, single experiments) of the same compound?
Answer: 14.274 and 13.5525 and 12.3756 and 13.817

Question: What about the cAMP response ([8]; odorant 9.18274e-6 M, Fig.S11a source data, single experiments) of the same compound?
Answer: 55.4145 and 67.6331 and 64.1017 and 55.2862

Question: What about the cAMP response ([8]; odorant 3.0303e-5 M, Fig.S11a source data, single experiments) of the same compound?
Answer: 86.9919 and 78.2813 and 84.5166 and 65.845

Question: And the cAMP response ([8]; odorant 0.0001 M, Fig.1a source data, single experiments)?
Answer: 127.982 and 109.844 and 107.02 and 115.524 and 104.582

Question: What about the cAMP response ([8]; odorant 0.0001 M, Fig.S11a source data, single experiments) of the same compound?
Answer: 98.5501 and 101.54 and 117.496 and 98.6522

Question: What about the “cAMP response (raw signal) upon OCA treatment” value [8, 11] of the same compound?
Answer: 146668 and 160587 and 152997 and 131980

Question: And the cAMP response ([8]; odorant 0.001 M, Fig.1a source data, single experiments)?
Answer: 103.349 and 98.3823 and 101.697 and 99.3544 and 97.2175

Question: And the cAMP response ([8]; odorant 0.001 M, Fig.S11a source data, single experiments)?
Answer: 95.2215 and 104.803 and 111.594 and 89.2504

Question: And the “ΔBRET (OCA- minus vehicle-treated BRET signal)” value [9]?
Answer: 0.0184 and 0.01592 and 0.01247 and 0.01013 and 0.01218

Question: And the “ΔBRET (OCA- minus vehicle-treated BRET signal)” value [10]?
Answer: 0.01011 and 0.01399 and 0.007869 and 0.00957 and 0.01164
